Two molecules from patent US20040175773A1, “Screening method based on siah-numb interaction” (priority 2000, published 2004) can be followed below.

Where a SMILES comes first, the peptide text is derived from it. The star is where a group is joined. Cbz = O=C(OCc1ccccc1)*

Test [1] concerns Notch1 nuclear translocation in U937 cells. The settings on record: 10 mM EDTA in PBS at 37° C. for 30 min; labelled 30 min (T=30) after removing the EDTA.
Experimental: A. Stable U937 transfectants which were expressing either the control vector (panels 1 to 3) or Siah-1 (panels 4 to 7) were analysed using a confocal microscope for the endogenous immunofluorescence of Notch1. The cells were labelled with an antibody which recognized the cytoplasmic portion of human Notch1, followed by an FITC-conjugated secondary antibody. The Notch immunofluorescence analysis is related either to low magnification (panels 1 and 4) or to high magnification (panels 2, 3, 5, 6 and 7). […] The labelling with propidium iodide was included in order to better visualize the nuclear labelling of Notch1 (panels 3, 6 and 7). […] The bar represents a length of 5 μm.
Cells were incubated in 10 mM EDTA containing PBS at 37° C. for 30 min, and then washed and labelled with anti-Notch1 (intracellular) antibodies either immediately (T=0) or 30 min (T=30) after removing the EDTA. The cells were counterlabelled with propidium iodide in order to visualize the nucleus.
Test [2] concerns quantity of Numb protein in 293T cells. The test can be described thus: Western blot of Numb protein in transfected 293T cells with or without proteasome inhibitor. Type of test: cell-based, human. Particulars: 293T cells cotransfected with Numb, Siah-1 +/- Mdm2; 50 μM MG132 for 6 hours; anti-Numb Western blot, FIG. 2B lanes 6, 7 and 8. The protocol: FIG. 2: Analysis of the effect of the in vivo interaction between Siah and Numb on the levels at which the proteins are expressed. FIG. 2.A. 293T cells were cotransfected with an empty expression vector (column 1) or expressing Numb (column 2), Siah-1 (column 3), Numb and Siah-1 (column 4), Numb and Mdm2 (column 5), and Numb, Siah-1 and Mdm2 (column 6). 48 hours after transfection, a Western blot analysis was carried out using an anti-Numb antibody. A control was also performed using an anti-GFP (green fluorescent protein) antibody as a loading standard on the gel. FIG. 2.B. The Western blot was analysed as previously described in the absence or presence of an inhibitor of the ubiquitin proteasome (MG 132). Without MG 132, the quantity of Numb protein decreases in the presence of Siah-1, with or without Mdm2 (lanes 2, 3 and 4). […]
The cell lysates were separated by SDS-PAGE gel electrophoresis and transferred to a nitrocellulose membrane (Biorad), with this being followed by a Western blot analysis using the Numb polyclonal antibody (Weizmann Institute, Ref. 3465, or reference N80220 from Transduction Laboratories) and the anti-GFP monoclonal antibody (Boehringer, Ref. 1814460) in order to verify standardization of the quantities which were loaded onto the gel. […]
In general terms: A western blot detects proteins with antibodies after separation by electrophoresis.

With `O=C(O)CN(CCN(CC(=O)O)CC(=O)O)CC(=O)O` [EDTA], the “nuclear translocation of Notch1” value in test [1] is recorded as “positive Notch1 labelling in the nucleus”. For the molecule `CC(C)C[C@@H](C=O)NC(=O)[C@H](CC(C)C)NC(=O)[C@H](CC(C)C)NC(=O)OCc1ccccc1` [MG 132] (Cbz-Leu-Leu-Leu-aldehyde), the “quantity of Numb protein in the presence of Siah-1, with or without Mdm2” value in test [2] is “remains constant”.
